PMC12300041, “Tricyclic Isatin Derivatives as Anti-Inflammatory Compounds with High Kinase Binding Affinity” (Molecules, 2025)

What was measured:
Test in all cases: KINOMEscan
Type in all cases: binding
SIK2 = biological target: T1, SIK2 (Homo sapiens, UniProt Q9H0K1)
T1 construct: purchased Eurofins DiscoverX KINOMEscan
In short: (§1)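 Compound and kinase were incubated at room temperature for 1 h, the free kinase fraction was captured with an immobilized affinity ligand, and capture was quantified by quantitative PCR; Kd values used a 12-point half-log series up to 33 μM.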

ADCK4 = biological target: T2, ADCK4 (Homo sapiens, UniProt Q96D53)
T2 construct: purchased Eurofins DiscoverX KINOMEscan
In short: as §1

PRKD2 = biological target: T3, PRKD2 (Homo sapiens, UniProt Q9BZL6)
T3 construct: purchased Eurofins DiscoverX KINOMEscan
In short: as §1

PIK3CA (I800L) = biological target: T4, PIK3CA (I800L) (Homo sapiens, UniProt P42336, I800L)
T4 construct: purchased Eurofins DiscoverX KINOMEscan
T4 sequence (P42336 whole entry I800L): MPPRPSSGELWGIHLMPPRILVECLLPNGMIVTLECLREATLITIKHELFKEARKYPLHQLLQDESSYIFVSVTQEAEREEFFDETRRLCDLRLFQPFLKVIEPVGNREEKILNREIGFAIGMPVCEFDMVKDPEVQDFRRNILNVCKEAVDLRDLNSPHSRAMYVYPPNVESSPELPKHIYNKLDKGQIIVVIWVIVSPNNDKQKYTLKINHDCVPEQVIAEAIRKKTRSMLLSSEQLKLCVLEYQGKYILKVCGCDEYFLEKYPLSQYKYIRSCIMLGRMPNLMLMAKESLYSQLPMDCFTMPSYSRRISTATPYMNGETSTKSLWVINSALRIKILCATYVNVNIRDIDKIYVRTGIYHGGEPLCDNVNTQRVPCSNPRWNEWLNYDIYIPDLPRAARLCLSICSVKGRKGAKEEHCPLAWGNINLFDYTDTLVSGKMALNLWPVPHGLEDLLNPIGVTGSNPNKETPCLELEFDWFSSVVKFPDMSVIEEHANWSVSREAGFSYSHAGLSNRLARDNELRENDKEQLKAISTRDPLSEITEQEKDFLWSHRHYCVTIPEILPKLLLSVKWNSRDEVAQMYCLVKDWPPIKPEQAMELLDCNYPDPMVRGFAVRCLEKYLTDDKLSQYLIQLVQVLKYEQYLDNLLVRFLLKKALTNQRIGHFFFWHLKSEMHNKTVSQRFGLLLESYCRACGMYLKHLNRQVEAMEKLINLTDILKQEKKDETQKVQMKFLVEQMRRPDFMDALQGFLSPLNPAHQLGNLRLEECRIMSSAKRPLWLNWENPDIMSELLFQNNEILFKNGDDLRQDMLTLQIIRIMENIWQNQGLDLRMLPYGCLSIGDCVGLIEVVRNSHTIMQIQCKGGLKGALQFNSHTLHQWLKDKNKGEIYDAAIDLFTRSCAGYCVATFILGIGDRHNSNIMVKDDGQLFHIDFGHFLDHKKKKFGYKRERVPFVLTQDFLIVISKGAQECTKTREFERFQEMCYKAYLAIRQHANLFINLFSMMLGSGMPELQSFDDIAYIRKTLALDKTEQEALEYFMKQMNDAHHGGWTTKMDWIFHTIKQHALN
In short: as §1

PCTK3 = biological target: T5, PCTK3 (Homo sapiens, UniProt Q07002)
T5 construct: purchased Eurofins DiscoverX KINOMEscan
In short: as §1

PKMYT1 = biological target: T6, PKMYT1 (Homo sapiens, UniProt Q99640)
T6 construct: purchased Eurofins DiscoverX KINOMEscan
In short: as §1

RIPK5 = biological target: T7, RIPK5 (Homo sapiens, UniProt Q6XUX3)
T7 construct: purchased Eurofins DiscoverX KINOMEscan
In short: as §1

EPHA2 = biological target: T8, EPHA2 (Homo sapiens, UniProt P29317)
T8 construct: purchased Eurofins DiscoverX KINOMEscan
T8 sequence (P29317 24-976): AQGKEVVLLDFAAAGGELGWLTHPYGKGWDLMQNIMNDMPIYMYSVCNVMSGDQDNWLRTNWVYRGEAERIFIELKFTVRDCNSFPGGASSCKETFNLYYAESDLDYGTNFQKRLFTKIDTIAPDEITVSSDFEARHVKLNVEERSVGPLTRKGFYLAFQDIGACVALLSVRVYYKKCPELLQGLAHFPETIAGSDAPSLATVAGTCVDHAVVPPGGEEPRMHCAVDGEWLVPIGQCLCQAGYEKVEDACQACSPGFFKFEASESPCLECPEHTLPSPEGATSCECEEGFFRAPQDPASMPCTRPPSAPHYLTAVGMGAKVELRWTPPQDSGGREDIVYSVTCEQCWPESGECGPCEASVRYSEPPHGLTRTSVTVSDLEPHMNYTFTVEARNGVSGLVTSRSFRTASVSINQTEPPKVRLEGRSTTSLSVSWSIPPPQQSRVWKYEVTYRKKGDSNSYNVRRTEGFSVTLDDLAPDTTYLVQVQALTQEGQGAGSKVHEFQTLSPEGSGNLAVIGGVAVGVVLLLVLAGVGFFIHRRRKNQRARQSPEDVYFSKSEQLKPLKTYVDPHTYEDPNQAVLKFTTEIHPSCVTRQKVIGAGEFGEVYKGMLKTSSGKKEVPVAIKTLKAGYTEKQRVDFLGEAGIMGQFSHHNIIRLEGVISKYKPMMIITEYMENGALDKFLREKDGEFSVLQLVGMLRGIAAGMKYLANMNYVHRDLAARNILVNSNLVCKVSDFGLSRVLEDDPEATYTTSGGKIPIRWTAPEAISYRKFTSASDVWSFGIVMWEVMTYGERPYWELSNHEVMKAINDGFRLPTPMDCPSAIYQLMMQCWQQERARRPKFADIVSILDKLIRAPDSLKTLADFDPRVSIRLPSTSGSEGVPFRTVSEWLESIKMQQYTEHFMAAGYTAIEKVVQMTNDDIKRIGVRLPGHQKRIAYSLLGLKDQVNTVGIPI
In short: as §1

GSK3A = biological target: T9, GSK3A (Homo sapiens, UniProt P49840)
T9 construct: purchased Eurofins DiscoverX KINOMEscan
T9 sequence (P49840 whole entry): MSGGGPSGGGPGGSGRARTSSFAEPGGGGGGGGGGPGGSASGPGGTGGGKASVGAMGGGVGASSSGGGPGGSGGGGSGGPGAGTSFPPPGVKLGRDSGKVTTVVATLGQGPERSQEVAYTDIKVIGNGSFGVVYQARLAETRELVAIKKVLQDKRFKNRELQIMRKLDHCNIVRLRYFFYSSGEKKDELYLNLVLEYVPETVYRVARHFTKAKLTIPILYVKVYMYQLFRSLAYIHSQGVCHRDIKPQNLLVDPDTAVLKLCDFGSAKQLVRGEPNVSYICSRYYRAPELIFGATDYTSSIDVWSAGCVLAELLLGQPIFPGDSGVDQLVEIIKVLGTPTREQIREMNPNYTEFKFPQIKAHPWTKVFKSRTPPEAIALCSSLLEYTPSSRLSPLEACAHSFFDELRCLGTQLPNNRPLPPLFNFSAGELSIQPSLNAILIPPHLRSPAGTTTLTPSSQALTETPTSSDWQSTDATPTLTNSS
In short: as §1

PRKR = biological target: T10, PRKR (Homo sapiens, UniProt P19525)
T10 construct: purchased Eurofins DiscoverX KINOMEscan
In short: as §1

MKNK1 = biological target: T11, MKNK1 (Homo sapiens, UniProt Q9BUB5)
T11 construct: purchased Eurofins DiscoverX KINOMEscan
In short: as §1

DRAK1 = biological target: T12, DRAK1 (Homo sapiens, UniProt Q9UEE5)
T12 construct: purchased Eurofins DiscoverX KINOMEscan
In short: as §1

CDK4 = biological target: T13, CDK4 (Homo sapiens, UniProt P11802)
T13 construct: purchased Eurofins DiscoverX KINOMEscan
In short: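 A 12-point half-log dilution series topping at 33 μM defined each Kd. The kinase fraction escaping compound binding over 1 h at room temperature was trapped by an immobilized affinity ligand and measured by quantitative PCR.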

ULK1 = biological target: T14, ULK1 (Homo sapiens, UniProt O75385)
T14 construct: purchased Eurofins DiscoverX KINOMEscan
In short: as §1

CDK9 = biological target: T15, CDK9 (Homo sapiens, UniProt P50750)
T15 construct: purchased Eurofins DiscoverX KINOMEscan
T15 sequence (P50750 whole entry): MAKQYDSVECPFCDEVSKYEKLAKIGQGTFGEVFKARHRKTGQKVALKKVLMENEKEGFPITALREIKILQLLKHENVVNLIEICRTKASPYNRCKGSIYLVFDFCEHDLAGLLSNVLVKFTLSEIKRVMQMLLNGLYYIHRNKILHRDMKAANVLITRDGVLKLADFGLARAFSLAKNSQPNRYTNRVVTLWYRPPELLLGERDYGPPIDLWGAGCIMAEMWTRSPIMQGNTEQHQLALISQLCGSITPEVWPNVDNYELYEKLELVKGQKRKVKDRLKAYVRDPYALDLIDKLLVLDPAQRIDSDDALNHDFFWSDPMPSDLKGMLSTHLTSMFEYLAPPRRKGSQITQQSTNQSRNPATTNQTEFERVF
In short: as §1

AAK1 = biological target: T16, AAK1 (Homo sapiens, UniProt Q2M2I8)
T16 construct: purchased Eurofins DiscoverX KINOMEscan
In short: as §1

CHEK1 = biological target: T17, CHEK1 (Homo sapiens, UniProt O14757)
T17 construct: purchased Eurofins DiscoverX KINOMEscan
T17 sequence (O14757 whole entry): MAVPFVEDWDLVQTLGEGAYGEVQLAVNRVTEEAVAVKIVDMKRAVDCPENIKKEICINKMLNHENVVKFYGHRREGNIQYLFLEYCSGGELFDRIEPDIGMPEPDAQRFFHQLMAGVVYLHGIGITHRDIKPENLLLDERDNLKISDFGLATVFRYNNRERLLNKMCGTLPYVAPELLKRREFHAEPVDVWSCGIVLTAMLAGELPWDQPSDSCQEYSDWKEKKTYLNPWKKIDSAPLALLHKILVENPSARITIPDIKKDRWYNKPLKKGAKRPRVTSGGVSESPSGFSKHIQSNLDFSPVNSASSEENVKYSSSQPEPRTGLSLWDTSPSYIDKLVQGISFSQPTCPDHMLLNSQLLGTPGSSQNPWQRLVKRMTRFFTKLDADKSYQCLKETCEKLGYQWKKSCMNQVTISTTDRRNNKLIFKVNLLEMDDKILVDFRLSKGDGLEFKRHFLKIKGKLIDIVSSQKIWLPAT
In short: as §1

CAMKK2 = biological target: T18, CAMKK2 (Homo sapiens, UniProt Q96RR4)
T18 construct: purchased Eurofins DiscoverX KINOMEscan
In short: (§2)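 Measured as Kd. Free kinase after 1 h at room temperature was captured on immobilized ligand and detected by qPCR; compound titrated in 12 half-log steps from 33 μM.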

NEK2 = biological target: T19, NEK2 (Homo sapiens, UniProt P51955)
T19 construct: purchased Eurofins DiscoverX KINOMEscan
In short: as §1

DDR1 = biological target: T20, DDR1 (Homo sapiens, UniProt Q08345)
T20 construct: purchased Eurofins DiscoverX KINOMEscan
In short: as §2

RIPK1 = biological target: T21, RIPK1 (Homo sapiens, UniProt Q13546)
T21 construct: purchased Eurofins DiscoverX KINOMEscan
In short: as §2

CDC2L5 = biological target: T22, CDC2L5 (Homo sapiens, UniProt Q14004)
T22 construct: purchased Eurofins DiscoverX KINOMEscan
In short: as §1

PCTK2 = biological target: T23, PCTK2 (Homo sapiens, UniProt Q00537)
T23 construct: purchased Eurofins DiscoverX KINOMEscan
In short: as §1

SGK = biological target: T24, SGK (Homo sapiens, UniProt O00141)
T24 construct: purchased Eurofins DiscoverX KINOMEscan
In short: as §1

NIM1 = biological target: T25, NIM1 (Homo sapiens, UniProt Q8IY84)
T25 construct: purchased Eurofins DiscoverX KINOMEscan
In short: as §1

CDC2L2 = biological target: T26, CDC2L2 (Homo sapiens, UniProt Q9UQ88)
T26 construct: purchased Eurofins DiscoverX KINOMEscan
In short: as §1

[1] = biological target: T27, RSK2 (Kin. Dom.2-C-term.) (Homo sapiens, UniProt P51812)
T27 construct: RSK2 (Kin. Dom.2-C-term.); purchased Eurofins DiscoverX KINOMEscan
T27 sequence (P51812 398-740 limits assumed): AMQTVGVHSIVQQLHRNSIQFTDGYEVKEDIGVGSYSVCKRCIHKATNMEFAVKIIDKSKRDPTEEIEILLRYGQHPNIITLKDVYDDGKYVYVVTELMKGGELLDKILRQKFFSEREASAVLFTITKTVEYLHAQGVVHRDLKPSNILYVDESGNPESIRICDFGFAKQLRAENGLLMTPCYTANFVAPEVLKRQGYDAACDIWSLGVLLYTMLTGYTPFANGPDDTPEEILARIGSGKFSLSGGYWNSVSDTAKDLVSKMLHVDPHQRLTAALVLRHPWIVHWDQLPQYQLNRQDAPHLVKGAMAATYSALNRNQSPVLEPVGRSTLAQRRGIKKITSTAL
In short: as §1

PKAC-β = biological target: T28, PKAC-β (Homo sapiens, UniProt P22694)
T28 construct: purchased Eurofins DiscoverX KINOMEscan
In short: as §1

ABL1 (T315I)-non-P = biological target: T29, ABL1 (T315I)-non-P (Homo sapiens, UniProt P00519, T315I)
T29 construct: purchased Eurofins DiscoverX KINOMEscan
In short: as §1

CSNK1G2 = biological target: T30, CSNK1G2 (Homo sapiens, UniProt P78368)
T30 construct: purchased Eurofins DiscoverX KINOMEscan
T30 sequence (P78368 whole entry): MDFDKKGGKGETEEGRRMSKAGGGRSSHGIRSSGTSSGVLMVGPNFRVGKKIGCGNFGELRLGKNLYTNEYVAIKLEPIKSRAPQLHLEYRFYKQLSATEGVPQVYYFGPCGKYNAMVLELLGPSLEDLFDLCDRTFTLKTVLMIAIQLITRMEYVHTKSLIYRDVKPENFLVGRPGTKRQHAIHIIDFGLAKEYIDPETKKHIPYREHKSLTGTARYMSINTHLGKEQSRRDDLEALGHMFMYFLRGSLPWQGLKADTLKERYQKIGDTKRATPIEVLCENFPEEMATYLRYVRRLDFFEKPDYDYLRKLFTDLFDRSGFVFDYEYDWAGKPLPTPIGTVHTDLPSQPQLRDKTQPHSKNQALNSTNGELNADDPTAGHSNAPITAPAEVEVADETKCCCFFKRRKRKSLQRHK
In short: as §1

STK33 = biological target: T31, STK33 (Homo sapiens, UniProt Q9BYT3)
T31 construct: purchased Eurofins DiscoverX KINOMEscan
In short: as §1

STK16 = biological target: T32, STK16 (Homo sapiens, UniProt O75716)
T32 construct: purchased Eurofins DiscoverX KINOMEscan
In short: as §1

KIT (D816H) = biological target: T33, KIT (D816H) (Homo sapiens, UniProt P10721, D816H)
T33 construct: purchased Eurofins DiscoverX KINOMEscan
In short: as §1

SIK = biological target: T34, SIK (Homo sapiens, UniProt P57059)
T34 construct: purchased Eurofins DiscoverX KINOMEscan
In short: as §2

FLT3 (D835V) = biological target: T35, FLT3 (D835V) (Homo sapiens, UniProt P36888, D835V)
T35 construct: purchased Eurofins DiscoverX KINOMEscan
In short: as §1

PIP5K2C = biological target: T36, PIP5K2C (Homo sapiens, UniProt Q8TBX8)
T36 construct: purchased Eurofins DiscoverX KINOMEscan
In short: as §2

FLT4 = biological target: T37, FLT4 (Homo sapiens, UniProt P35916)
T37 construct: purchased Eurofins DiscoverX KINOMEscan
In short: as §1

GRK1 = biological target: T38, GRK1 (Homo sapiens, UniProt Q15835)
T38 construct: purchased Eurofins DiscoverX KINOMEscan
In short: as §1

ABL1 (H396P)-non-P = biological target: T39, ABL1 (H396P)-non-P (Homo sapiens, UniProt P00519, H396P)
T39 construct: purchased Eurofins DiscoverX KINOMEscan
In short: as §1

T1 sequence (Q9H0K1 whole entry): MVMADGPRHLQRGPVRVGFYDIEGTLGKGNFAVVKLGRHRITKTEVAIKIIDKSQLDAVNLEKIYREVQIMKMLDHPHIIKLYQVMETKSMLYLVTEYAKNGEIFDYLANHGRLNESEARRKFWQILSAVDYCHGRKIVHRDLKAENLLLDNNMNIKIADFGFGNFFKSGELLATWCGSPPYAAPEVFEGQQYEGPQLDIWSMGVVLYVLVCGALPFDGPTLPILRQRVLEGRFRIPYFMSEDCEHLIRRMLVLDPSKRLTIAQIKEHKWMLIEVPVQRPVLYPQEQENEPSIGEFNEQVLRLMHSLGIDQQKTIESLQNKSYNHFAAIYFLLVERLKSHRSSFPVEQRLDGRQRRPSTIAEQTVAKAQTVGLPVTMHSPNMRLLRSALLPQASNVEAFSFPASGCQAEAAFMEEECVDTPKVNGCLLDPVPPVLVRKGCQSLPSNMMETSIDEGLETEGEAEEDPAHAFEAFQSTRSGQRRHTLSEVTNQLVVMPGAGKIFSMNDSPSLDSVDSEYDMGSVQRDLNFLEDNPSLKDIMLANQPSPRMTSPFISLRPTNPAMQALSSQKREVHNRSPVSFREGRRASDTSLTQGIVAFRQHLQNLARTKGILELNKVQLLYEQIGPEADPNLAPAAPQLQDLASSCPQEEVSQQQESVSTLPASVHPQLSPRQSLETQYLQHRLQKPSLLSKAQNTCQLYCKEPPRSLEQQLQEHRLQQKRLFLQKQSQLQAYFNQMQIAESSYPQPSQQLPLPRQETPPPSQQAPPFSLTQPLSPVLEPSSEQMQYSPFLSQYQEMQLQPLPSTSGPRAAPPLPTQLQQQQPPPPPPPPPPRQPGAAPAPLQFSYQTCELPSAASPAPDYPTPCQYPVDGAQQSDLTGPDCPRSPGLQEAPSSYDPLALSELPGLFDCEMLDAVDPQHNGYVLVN

SMILES: O=C1Nc2c(cc([N+](=O)[O-])c3c2CCCC3)C1=NO [Compound 5d, 3-(Hydroxyimino)-5-nitro-1,3,6,7,8,9-hexahydro-2H-benzo[g]indol-2-one]
- inhibition at 10 µM (SIK2): 7%
- inhibition at 10 µM (ADCK4): 12%
- inhibition at 10 µM (PRKD2): 77%
- inhibition at 10 µM (PIK3CA (I800L)): 5%
- inhibition at 10 µM (PCTK3): 0%
- inhibition at 10 µM (PKMYT1): 0%
- inhibition at 10 µM (RIPK5): 17%
- inhibition at 10 µM (EPHA2): 19%
- inhibition at 10 µM (GSK3A): 57%
- inhibition at 10 µM (PRKR): 6%
- inhibition at 10 µM (MKNK1): 72%
- inhibition at 10 µM (DRAK1): 76%
- inhibition at 10 µM (CDK4): 7%
- inhibition at 10 µM (ULK1): 15%
- inhibition at 10 µM (CDK9): 0%
- inhibition at 10 µM (AAK1): 91.8%
- inhibition at 10 µM (CHEK1): 2%
- inhibition at 10 µM (CAMKK2): 56%
- inhibition at 10 µM (NEK2): 16%
- inhibition at 10 µM (DDR1): 0%
- inhibition at 10 µM (RIPK1): 0%
- inhibition at 10 µM (CDC2L5): 13%
- inhibition at 10 µM (PCTK2): 0%
- inhibition at 10 µM (SGK): 91.1%
- inhibition at 10 µM (NIM1): 52%
- inhibition at 10 µM (CDC2L2): 0%
- inhibition at 10 µM [1]: 0%
- inhibition at 10 µM (PKAC-β): 2%
- inhibition at 10 µM (ABL1 (T315I)-non-P): 1%
- inhibition at 10 µM (CSNK1G2): 90%
- inhibition at 10 µM (STK33): 62%
- inhibition at 10 µM (STK16): 72%
- inhibition at 10 µM (KIT (D816H)): 1%
- inhibition at 10 µM (SIK): 9%
- inhibition at 10 µM (FLT3 (D835V)): 72%
- inhibition at 10 µM (PIP5K2C): 40%
- inhibition at 10 µM (FLT4): 8%
- inhibition at 10 µM (GRK1): 67%
- inhibition at 10 µM (ABL1 (H396P)-non-P): 65%
